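Grown in 96-well plates, cells were treated for 48 hours with each compound at five concentrations. Insufficient inhibition: endpoint recorded as highest concentration tested. Definition used: TGI = concentration required for complete inhibition of growth.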
What was measured:
Experiment in all cases: NCI tumour cell line growth inhibition, 48 h
MOLT-4 leukemia = system: MOLT-4 leukemia
HCC-2998 colon = system: HCC-2998 colon
M14 melanoma = system: M14 melanoma
K-562 leukemia = system: K-562 leukemia
CAKI-1 renal = system: CAKI-1 renal
OVCAR-8 ovarian = system: OVCAR-8 ovarian
COLO 205 colon = system: COLO 205 colon
IGROV1 ovarian = system: IGROV1 ovarian
SK-MEL-28 melanoma = system: SK-MEL-28 melanoma
SF-268 CNS = system: SF-268 CNS
BT-549 breast = system: BT-549 breast
HOP-92 NSCLC = system: HOP-92 NSCLC
SF-539 CNS = system: SF-539 CNS
ACHN renal = system: ACHN renal
NCI-H23 lung = system: NCI-H23 lung
CCRF-CEM leukemia = system: CCRF-CEM leukemia
SNB-75 CNS = system: SNB-75 CNS
HOP-62 NSCLC = system: HOP-62 NSCLC
KM12 colon = system: KM12 colon
RPMI-8226 leukemia = system: RPMI-8226 leukemia
NCI-H226 lung = system: NCI-H226 lung
OVCAR-3 ovarian = system: OVCAR-3 ovarian
HCT-15 colon = system: HCT-15 colon
HL-60(TB) leukemia = system: HL-60(TB) leukemia
MDA-N = system: MDA-N
SF-295 CNS = system: SF-295 CNS
SK-MEL-2 melanoma = system: SK-MEL-2 melanoma
NCI-H460 lung = system: NCI-H460 lung
UACC-257 melanoma = system: UACC-257 melanoma
A549 NSCLC = system: A549 NSCLC
HT29 colon = system: HT29 colon
SK-OV-3 ovarian = system: SK-OV-3 ovarian
NCI-H522 lung = system: NCI-H522 lung
RXF 393 renal = system: RXF 393 renal
UACC-62 melanoma = system: UACC-62 melanoma
HCT-116 colon = system: HCT-116 colon
OVCAR-5 ovarian = system: OVCAR-5 ovarian
786-0 renal = system: 786-0 renal
DU-145 prostate = system: DU-145 prostate
MDA-MB-231 breast = system: MDA-MB-231 breast
OVCAR-4 ovarian = system: OVCAR-4 ovarian
MALME-3M melanoma = system: MALME-3M melanoma
SN12C renal = system: SN12C renal
U251 CNS = system: U251 CNS
UO-31 renal = system: UO-31 renal
SK-MEL-5 melanoma = system: SK-MEL-5 melanoma
MDA-MB-435 = system: MDA-MB-435
NCI/ADR-RES ovarian = system: NCI/ADR-RES ovarian
PC-3 prostate = system: PC-3 prostate
TK-10 renal = system: TK-10 renal
SW-620 colon = system: SW-620 colon
EKVX NSCLC = system: EKVX NSCLC
SR leukemia = system: SR leukemia
HS 578T breast = system: HS 578T breast
LOX IMVI melanoma = system: LOX IMVI melanoma
SNB-19 CNS = system: SNB-19 CNS
MCF7 breast = system: MCF7 breast
T-47D breast = system: T-47D breast
A498 renal = system: A498 renal

CS(C)(=O)=N/C=C\C(=O)C(Cl)(Cl)Cl was tested, and the TGI (MOLT-4 leukemia) was over 100 µM, the TGI (HCC-2998 colon) was over 100 µM and the TGI (M14 melanoma) was over 100 µM. The TGI (K-562 leukemia) was over 100 µM, the TGI (CAKI-1 renal) was over 100 µM and the TGI (OVCAR-8 ovarian) was over 100 µM. The TGI (COLO 205 colon) was over 100 µM, the TGI (IGROV1 ovarian) was over 100 µM and the TGI (SK-MEL-28 melanoma) was over 100 µM. It also gave a TGI (SF-268 CNS) of over 100 µM, a TGI (BT-549 breast) of over 100 µM and a TGI (HOP-92 NSCLC) of over 100 µM. The TGI (SF-539 CNS) was over 100 µM, the TGI (ACHN renal) was over 100 µM and the TGI (NCI-H23 lung) was over 100 µM. For the same compound, the TGI (CCRF-CEM leukemia) was over 100 µM, the TGI (SNB-75 CNS) was over 100 µM and the TGI (HOP-62 NSCLC) was over 100 µM. It also gave a TGI (KM12 colon) of over 100 µM, a TGI (RPMI-8226 leukemia) of over 100 µM and a TGI (NCI-H226 lung) of over 100 µM. For the same compound, the TGI (OVCAR-3 ovarian) was over 100 µM, the TGI (HCT-15 colon) was over 100 µM and the TGI (HL-60(TB) leukemia) was over 100 µM. For the same compound, the TGI (MDA-N) was over 100 µM, the TGI (SF-295 CNS) was over 100 µM and the TGI (SK-MEL-2 melanoma) was over 100 µM. It also gave a TGI (NCI-H460 lung) of over 100 µM, a TGI (UACC-257 melanoma) of over 100 µM and a TGI (A549 NSCLC) of over 100 µM. It also gave a TGI (HT29 colon) of over 100 µM, a TGI (SK-OV-3 ovarian) of over 100 µM and a TGI (NCI-H522 lung) of over 100 µM. It also gave a TGI (RXF 393 renal) of over 100 µM, a TGI (UACC-62 melanoma) of over 100 µM and a TGI (HCT-116 colon) of over 100 µM. For the same compound, the TGI (OVCAR-5 ovarian) was over 100 µM, the TGI (786-0 renal) was over 100 µM and the TGI (DU-145 prostate) was over 100 µM. For the same compound, the TGI (MDA-MB-231 breast) was over 100 µM, the TGI (OVCAR-4 ovarian) was over 100 µM and the TGI (MALME-3M melanoma) was over 100 µM. The TGI (SN12C renal) was over 100 µM, the TGI (U251 CNS) was over 100 µM and the TGI (UO-31 renal) was over 100 µM. The TGI (SK-MEL-5 melanoma) was over 100 µM, the TGI (MDA-MB-435) was over 100 µM and the TGI (NCI/ADR-RES ovarian) was over 100 µM. It also gave a TGI (PC-3 prostate) of over 100 µM, a TGI (TK-10 renal) of over 100 µM and a TGI (SW-620 colon) of over 100 µM. It also gave a TGI (EKVX NSCLC) of over 100 µM, a TGI (SR leukemia) of over 100 µM and a TGI (HS 578T breast) of over 100 µM. For the same compound, the TGI (LOX IMVI melanoma) was over 100 µM, the TGI (SNB-19 CNS) was over 100 µM and the TGI (MCF7 breast) was over 100 µM. It also gave a TGI (T-47D breast) of over 100 µM.
Work on Cc1c2c(c(C)c3c[n+](C)ccc13)Oc1ccccc1O2 yielded a TGI (MOLT-4 leukemia) of 23.8 µM, a TGI (HCC-2998 colon) of 19.8 µM and a TGI (M14 melanoma) of over 59.7 µM. For the same compound, the TGI (K-562 leukemia) was 35.4 µM, the TGI (CAKI-1 renal) was over 100 µM and the TGI (OVCAR-8 ovarian) was over 54 µM. The TGI (COLO 205 colon) was over 52.9 µM, the TGI (IGROV1 ovarian) was 50 µM and the TGI (SK-MEL-28 melanoma) was 28.6 µM. It also gave a TGI (SF-268 CNS) of 11.8 µM, a TGI (HOP-92 NSCLC) of 99.8 µM and a TGI (SF-539 CNS) of 22.4 µM. For the same compound, the TGI (ACHN renal) was over 100 µM, the TGI (NCI-H23 lung) was 40.4 µM and the TGI (CCRF-CEM leukemia) was 37.6 µM. For the same compound, the TGI (SNB-75 CNS) was 17.5 µM, the TGI (HOP-62 NSCLC) was 33.4 µM and the TGI (KM12 colon) was 6.42 µM. The TGI (RPMI-8226 leukemia) was 12.7 µM, the TGI (NCI-H226 lung) was over 43.8 µM and the TGI (OVCAR-3 ovarian) was 17.5 µM. For the same compound, the TGI (HCT-15 colon) was over 100 µM, the TGI (HL-60(TB) leukemia) was 39.4 µM and the TGI (MDA-N) was 53.5 µM. For the same compound, the TGI (SF-295 CNS) was over 80.4 µM, the TGI (SK-MEL-2 melanoma) was 41.2 µM and the TGI (NCI-H460 lung) was 16.4 µM. It also gave a TGI (UACC-257 melanoma) of 25.9 µM, a TGI (A549 NSCLC) of over 100 µM and a TGI (HT29 colon) of 68.2 µM. It also gave a TGI (SK-OV-3 ovarian) of over 84.5 µM, a TGI (A498 renal) of over 100 µM and a TGI (NCI-H522 lung) of 17.1 µM. For the same compound, the TGI (RXF 393 renal) was over 100 µM, the TGI (UACC-62 melanoma) was 27.4 µM and the TGI (HCT-116 colon) was over 67.9 µM. The TGI (OVCAR-5 ovarian) was over 31.6 µM, the TGI (786-0 renal) was over 100 µM and the TGI (DU-145 prostate) was over 100 µM. For the same compound, the TGI (MDA-MB-231 breast) was over 69.8 µM, the TGI (OVCAR-4 ovarian) was 28.2 µM and the TGI (MALME-3M melanoma) was 19.1 µM. For the same compound, the TGI (SN12C renal) was over 42.4 µM, the TGI (U251 CNS) was 22.3 µM and the TGI (UO-31 renal) was over 100 µM. The TGI (SK-MEL-5 melanoma) was 42.5 µM, the TGI (MDA-MB-435) was 34.1 µM and the TGI (NCI/ADR-RES ovarian) was over 100 µM. For the same compound, the TGI (PC-3 prostate) was over 76.7 µM, the TGI (TK-10 renal) was over 100 µM and the TGI (SW-620 colon) was over 52.8 µM. For the same compound, the TGI (EKVX NSCLC) was over 100 µM, the TGI (HS 578T breast) was 12.9 µM and the TGI (LOX IMVI melanoma) was over 71.1 µM. For the same compound, the TGI (SNB-19 CNS) was 12.7 µM, the TGI (MCF7 breast) was over 63 µM and the TGI (T-47D breast) was 25.7 µM.

— PubChem BioAssay (NCI)
